In patent US4948873A, “Gonadoliberine analogues of high activity” (Richter Gedeon Vegyeszeti Gyar, priority 1985, dated 1990):

Columns and labels:
Type in all cases: in vivo
LH hormone = experiment: LH concentration in the serum of male mice after subcutaneous administration (radioimmunoassay); settings: dose 200 ng/mouse; for LH serum level in mice after the treatments, 2 hours: 2 hours after treatment; for LH serum level in mice after the treatments, 4 hours: 4 hours after treatment; for LH serum level in mice after the treatments, 6 hours: 6 hours after treatment
Procedure: The common feature of the superactive GnRH analogues is that they liberate many times the amount of LH hormone than the natural GnRH could do and the duration of their effect is also much longer. In order to illustrate the above statements the activity for liberating LH hormone of the natural GnRH analogues and some superactive and some representatives of the GnRH analogues of formula I according to the invention are shown in FIG. 1. The experiments were carried out on male mice, the active ingredient was administered subcutaneously and the LH content of the serum of the blood of the animals was measured by radioimmunoassay.
Table I summarizes the biological data of a preferable representative of the GnRH analogues of formula I, Asu^6 -desGly^10 -GnRH-ethylamide.

rats [1] = experiment: Toxicity in rats, single dose; settings: single dose of 10 mg/kg
From the text: (§1) The toxicity data of Asu^6, desGly^10 -GnRH-ethylamide are as follows: […]

rats [2] = experiment: Toxicity in rats, administration for 17 days; settings: 10 μg/rat for 17 days
From the text: as §1

[3] = test system: sexually mature female rats; experiment: Inhibition of ovulation in rats; settings: 0.5 μg/rat for 17 days
Procedure: (c) Inhibition of ovulation in rats
The compound was administered for 17 days in a dose of 0.5 μg/rats to sexually mature female rats. The inhibition of ovulation was 100%. The experimental method is described in B.B.R.C. 118, 351 […] Kovacs et al.

[4] = test system: sexually matured female rabbits; experiment: Induction of ovulation in angora rabbit; settings: single dose of 1.5 μg/rabbit, thereafter artificially inseminated
Procedure: (d) Induction of ovulation in angora rabbit
The sexually matured female rabbits were administered with a single does of 1.5 μg/rabbit, thereafter artificially inseminated. 90% of the animals became pregnant.

| Substance | LH serum level in mice after the treatments, 2 hours (LH hormone) [ng/mL] | LH serum level in mice after the treatments, 4 hours (LH hormone) [ng/mL] | LH serum level in mice after the treatments, 6 hours (LH hormone) [ng/mL] | toxicity (rats [1]) | toxicity (rats [2]) | inhibition of ovulation [3] [%] | animals that became pregnant [4] [%] |
| --- | --- | --- | --- | --- | --- | --- | --- |
| Glp-His-Trp-Ser-Tyr-Asu-Leu-Arg-Pro-ethylamide [Asu^6,desGly^10 -GnRH-ethylamide] | 958.4 | 702.3 | 216.2 | did not prove to be toxic | atoxic | 100 | 90 |
| GnRh: native gonadoliberine peptide hormone of hypothalamic origin [reference compound] | 85.2 | 81.4 | 87.0 | – | – | – | – |
